In publication PMC7747594, “Protease-activated receptor-2 ligands reveal orthosteric and allosteric mechanisms of receptor inhibition” (Communications Biology, 2020):
Values joined by “and” are separate entries in the source; they are usually repeats but may differ in a detail not shown here. Identical values can stand only once. Blank lines part the entries; values can stand above or below the molecule they belong to. Ends that are not written are not given here. Peptide text beside a SMILES is read from it.

How the values were obtained:
[1] = target: human PAR2 on Flp-In CHO-hPAR2 cells (human) (UniProt P55085); assay: time-resolved fluorescence competition binding on cells (Eu-tagged ligand, DELFIA); CHO-hPAR2 cells in 384-well plates, blocked with 2% BSA; Eu-tagged-2f-LIGRLO(dtpa)-NH2 300 nM together with competitor for 15 min; washed; DELFIA Enhancement Solution
hPAR2 [2] = target: T1, hPAR2 (Homo sapiens, UniProt P55085); assay: IP1 assay, agonist mode, 1321N1-hPAR2 cells; assay type: cell-based
T1 sequence (P55085 26-397): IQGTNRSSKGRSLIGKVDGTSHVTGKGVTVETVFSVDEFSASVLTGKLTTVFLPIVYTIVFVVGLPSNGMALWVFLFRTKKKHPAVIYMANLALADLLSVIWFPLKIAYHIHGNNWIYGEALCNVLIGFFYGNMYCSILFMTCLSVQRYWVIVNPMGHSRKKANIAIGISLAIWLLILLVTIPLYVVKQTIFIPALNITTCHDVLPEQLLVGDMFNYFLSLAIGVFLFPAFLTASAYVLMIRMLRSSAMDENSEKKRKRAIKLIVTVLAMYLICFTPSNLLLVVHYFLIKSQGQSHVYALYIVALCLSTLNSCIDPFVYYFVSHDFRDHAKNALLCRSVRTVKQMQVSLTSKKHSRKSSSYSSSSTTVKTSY

hPAR2 [3] = target: T1, hPAR2; assay: pERK1/2 assay, agonist mode, U2OS-hPAR2 cells; assay type: cell-based
hPAR2 [4] = target: T1, hPAR2; assay: Ca^2+ flux assay, agonist mode, 1321N1-hPAR2 cells; assay type: cell-based; conditions: for Ca2+ response (Fig 2c), individual replicate values: hPAR2
Description: Cells were loaded with Fluo-8 NW calcium dye (AAT Bioquest) for 30 min at 37 °C before compounds in Hank’s balanced salt solution (HBSS, ThermoFisher Scientific) with 20 mM HEPES (ThermoFisher Scientific), 0.1% bovine serum albumin (BSA, Sigma) and 0.5% DMSO were added and simultaneously evaluated for changes in intracellular [Ca^2+] using FLIPR TETRA (Molecular Devices) to detect agonism. For each concentration, the difference between the maximum peak Ca^2+ response and baseline response is reported. […] Antagonism experiments were also carried out on 1321N1-PAR2[WT], 1321N1-PAR2[F154A], and 1321N1-PAR2[G157C] as described. Experiments with trypsin in 1321N1-hPAR2 cells were performed in the presence of 1 µM Vorapaxar (Chemtronica) to remove any interference of PAR1 activity. […] Antagonism experiments for CHO-hPAR2 and HT-29 cells were performed in 96-well plates at 30,000 cells/well. Cells were loaded with Fluo-3 AM calcium dye (Sigma-Aldrich) for 60 min at 37 °C in HBSS with 1% FBS, 0.2% pluronic acid, 20 mM HEPES and 2.5 mM probenecid prior to the addition of antagonist. The antagonist was pre-incubated for 60 min at 37 °C followed by the addition of bovine trypsin (30 nM) at EC80. Intracellular [Ca^2+] flux was measured using FLIPR TETRA (Molecular Devices) and the difference between the maximum peak Ca^2+ response and baseline response is reported.
Binding data were analysed using the One site – Fit Ki model in GraphPad Prism 8 (GraphPad Software) to determine binding affinity. Pharmacology in vitro potency data was analysed with a 4-parameter logistic fit using the equation y = Bottom + (Top − Bottom)/[…] where y is the response, x is the 10-logarithm of the drug concentration, Bottom is no response and Top is full response in GraphPad Prism 8 or Genedata Screener (Genedata). pEC50 and pIC50 data are presented as mean ± standard error of the mean (s.e.m.) derived from the number of independent experiments stated. Schild slope analysis was calculated using Graphpad Prism 8 Gaddum/Schild EC50 global fitting (shared model parameters between all data sets) competitive model. […] Schild slope quantifies the shifts in agonist response in the presence of antagonist, a Schild slope of 1 indicates the antagonist is competitive and extra-sum-of-squares F-test (p < 0.05) was used to compare the calculated Schild slope against a hypothetical Schild slope of 1. […] The relative activity was calculated using (EmaxEC50’)/(Emax’EC50) with the Hill slope help constant at 1. EC50’ and Emax’ denote the EC50 and Emax in the absence of allosteric modulator, while EC50 and Emax denote those measured in the presence of allosteric modulator. When the Hill slope = 1, the relative activity plot approaches an asymptote corresponding to the estimate of the γ value.

hPAR2 [5] = target: T1, hPAR2; assay: Radiolabelled competition binding assay against [^3H]-GB110 on HEKexpi293F membranes; set-up: expressed in transfected cells
Description: The reaction was then filtered through 0.5% PEI-coated filter plates using a BiomekFX. The filter plate was then dried for 1 h at 50 °C. Scintillation fluid was added to each well, before reading the plate in a Microbeta reader.
Binding data were analysed using the One site – Fit Ki model in GraphPad Prism 8 (GraphPad Software) to determine binding affinity. Pharmacology in vitro potency data was analysed with a 4-parameter logistic fit using the equation y = Bottom + (Top − Bottom)/[…] where y is the response, x is the 10-logarithm of the drug concentration, Bottom is no response and Top is full response in GraphPad Prism 8 or Genedata Screener (Genedata). pEC50 and pIC50 data are presented as mean ± standard error of the mean (s.e.m.) derived from the number of independent experiments stated. Schild slope analysis was calculated using Graphpad Prism 8 Gaddum/Schild EC50 global fitting (shared model parameters between all data sets) competitive model. The most rigorous method for quantifying agonist-antagonist interactions is to globally fit the Gaddum/Shild model to all agonist dose–response curves. Schild slope quantifies the shifts in agonist response in the presence of antagonist, a Schild slope of 1 indicates the antagonist is competitive and extra-sum-of-squares F-test (p < 0.05) was used to compare the calculated Schild slope against a hypothetical Schild slope of 1. […] The relative activity was calculated using (EmaxEC50’)/(Emax’EC50) with the Hill slope help constant at 1. EC50’ and Emax’ denote the EC50 and Emax in the absence of allosteric modulator, while EC50 and Emax denote those measured in the presence of allosteric modulator. When the Hill slope = 1, the relative activity plot approaches an asymptote corresponding to the estimate of the γ value.

hPAR2 [6] = target: T1, hPAR2; assay: β-arrestin-2 recruitment, agonist mode, U2OS-hPAR2 cells; assay type: cell-based
[7] = target: human protease-activated receptor-2 (PAR2) in membranes of HEKexpi293F cells (human, UniProt P55085 26-397); assay: radioligand binding; competition against [3H]-GB110 (25 nM) on membranes (30 µg protein per well) of HEKexpi293F cells expressing human PAR2; 2 h at room temperature; filtration; One site - Fit Ki model; conditions: one partner purified

- pKA (equilibrium dissociation constant of the orthosteric ligand) [1]: 6.1 pKA
Molecule: 2f-LIGRLO-NH2 (peptide)

Molecule: CC[C@H](C)[C@H](NC(=O)[C@H](CC(C)C)NC(=O)[C@@H](N)CO)C(=O)NCC(=O)N[C@@H](CCCCN)C(=O)N[C@H](C(N)=O)C(C)C [SLIGKV-NH2, reference compound] (H-SLIGKV-NH2)
- EC50 (hPAR2 [2]): 25.1 µM
- EC50 (hPAR2 [3]): 10 µM
- agonist response (Fig 2e), individual replicate values (hPAR2 [3]; [compound],M -4.04576): 99.6308 and 91.4672 and 59.9255 and 93.3534 and 82.1422 and 106.727 and 95.3302 and 107.361
- agonist response (Fig 2e), individual replicate values (hPAR2 [3]; [compound],M -4.52288): 97.6379 and 75.0545 and 42.279 and 78.3436 and 72.4641 and 77.8082 and 83.5277 and 91.4836
- agonist response (Fig 2e), individual replicate values (hPAR2 [3]; [compound],M -5): 31.7126 and 38.7964 and 29.9003 and 52.5593 and 35.7079 and 56.5471 and 40.6895 and 78.4826
- agonist response (Fig 2e), individual replicate values (hPAR2 [3]; [compound],M -5.47712): -6.206 and 24.6437 and 9.489 and 50.4555 and 3.733 and 21.3761 and 7.93 and 32.2657
- agonist response (Fig 2e), individual replicate values (hPAR2 [3]; [compound],M -5.95424): -12.6824 and 18.9444 and 7.502 and 22.8061 and -1.381 and 9.052 and -3.256 and 12.5644
- agonist response (Fig 2e), individual replicate values (hPAR2 [3]; [compound],M -6.43136): -23.75 and 16.3682 and -5.093 and 16.2671 and -4.436 and 12.7209 and -3.872 and 14.813
- agonist response (Fig 2e), individual replicate values (hPAR2 [3]; [compound],M -6.90849): 15.5205 and 19.768 and 3.339 and 15.6565 and 2.966 and 12.1455 and -0.4138 and 11.0577
- agonist response (Fig 2e), individual replicate values (hPAR2 [3]; [compound],M -7.38561): -7.931 and 10.0627 and -5.815 and 6.181 and -11.0844 and 9.039 and -0.4366 and 14.6989
- agonist response (Fig 2e), individual replicate values (hPAR2 [3]; [compound],M -7.86273): -16.2411 and 11.2751 and -1.735 and 6.359 and -8.732 and 10.0488 and 1.766 and 13.489
- agonist response (Fig 2e), individual replicate values (hPAR2 [3]; [compound],M -8.33985): -5.583 and 13.904 and -4.7322 and 9.728 and -8.195 and 13.5647 and -0.3681 and 7.371
- EC50 (hPAR2 [4]): 1.26 µM
- Ca2+ response (Fig 2c), individual replicate values (hPAR2 [4]; [compound],M -3.69897): 103.767 and 118.778 and 97.8658 and 87.8393
- Ca2+ response (Fig 2c), individual replicate values (hPAR2 [4]; [compound],M -4.17609): 56.3274 and 105.715 and 98.496 and 100.501
- Ca2+ response (Fig 2c), individual replicate values (hPAR2 [4]; [compound],M -4.65321): 93.626 and 84.0006 and 100.043 and 97.9804
- Ca2+ response (Fig 2c), individual replicate values (hPAR2 [4]; [compound],M -5.13033): 68.0728 and 71.1667 and 73.1719 and 72.2553
- Ca2+ response (Fig 2c), individual replicate values (hPAR2 [4]; [compound],M -5.60746): 41.6601 and 53.119 and 63.0309 and 60.338
- Ca2+ response (Fig 2c), individual replicate values (hPAR2 [4]; [compound],M -6.08458): 28.1959 and 44.9832 and 36.0453 and 35.9307
- Ca2+ response (Fig 2c), individual replicate values (hPAR2 [4]; [compound],M -6.5617): 11.2941 and 18.1695 and 18.1121 and 22.4665
- Ca2+ response (Fig 2c), individual replicate values (hPAR2 [4]; [compound],M -7.03882): 4.705 and 12.8411 and -0.8522 and 3.559
- Ca2+ response (Fig 2c), individual replicate values (hPAR2 [4]; [compound],M -7.51594): -1.139 and 5.679 and 1.6687 and -1.54
- Ca2+ response (Fig 2c), individual replicate values (hPAR2 [4]; [compound],M -7.99306): -2.17 and 3.044 and 0.4082 and -4.863
- Ki (hPAR2 [5]): 0.468 µM
- remaining binding at […] (hPAR2 [5]; 2 h, read-out: specific binding of [^3H]-GB110, Fig 2b source data): 100% and 94.6%
- EC50 (hPAR2 [6]): 12.6 µM
- agonist response (Fig 2f), individual replicate values (hPAR2 [6]; [compound],M -4.04576): 97.3808 and 92.2809 and 86.7862 and 73.31 and 95.9148 and 84.3134
- agonist response (Fig 2f), individual replicate values (hPAR2 [6]; [compound],M -4.52288): 92.9579 and 90.0884 and 64.3276 and 56.5062 and 77.8703 and 74.4284
- agonist response (Fig 2f), individual replicate values (hPAR2 [6]; [compound],M -5): 55.0604 and 54.5545 and 55.8646 and 38.6159 and 58.5041 and 56.712
- agonist response (Fig 2f), individual replicate values (hPAR2 [6]; [compound],M -5.47712): 26.8191 and 21.9568 and 32.045 and 20.5609 and 38.941 and 38.2123
- agonist response (Fig 2f), individual replicate values (hPAR2 [6]; [compound],M -5.95424): 3.59 and 16.887 and 24.5009 and 9.51 and 14.8748 and 18.3177
- agonist response (Fig 2f), individual replicate values (hPAR2 [6]; [compound],M -6.43136): -3.351 and 12.8282 and 7.2581 and 5.779 and 4.6 and 10.8974
- agonist response (Fig 2f), individual replicate values (hPAR2 [6]; [compound],M -6.90849): 4.102 and 7.728 and 1.445 and -0.0221 and 3.388 and 8.399
- agonist response (Fig 2f), individual replicate values (hPAR2 [6]; [compound],M -7.38561): 1.29 and 11.1269 and 3.313 and 3.3558 and 1.549 and 0.5881
- agonist response (Fig 2f), individual replicate values (hPAR2 [6]; [compound],M -7.86273): -1.101 and 4.782 and 4.705 and 0.01875 and -2.103 and 4.2334
- agonist response (Fig 2f), individual replicate values (hPAR2 [6]; [compound],M -8.33985): -5.551 and 2.218 and -0.6869 and -0.9848 and 0.2659 and 2.337

- pKi [7]: 6.33 pKi
B1: SLIGKV-NH2 (peptide)
peptide: SLIGKV-NH2
notes: also called human tethered ligand peptide; source: synthetic peptide, custom synthesised by ThermoFisher Scientific
